Converted amounts (≈) assume the structure as drawn. The source made the active and inactive calls. No cut-off for these calls is given here.
Experiments:
[1] = Drug uptake in Sprague-Dawley rat brain at 10 mg/kg, po administered as single dose after 4 hrs; assay type: ADME, organism-based; conditions: read-out: Drug uptake
[2] = biological target: Phosphatidylinositol 4,5-bisphosphate 3-kinase catalytic subunit gamma isoform (Homo sapiens, UniProt P48736)
Description: Inhibition of human PI3Kgamma (144 to 1102 residues) expressed in mammalian expression system by KINOMEscan assay

[3] = biological target: T1, Phosphatidylinositol 4,5-bisphosphate 3-kinase catalytic subunit delta isoform (Homo sapiens, UniProt O00329)
T1 sequence (O00329 whole entry): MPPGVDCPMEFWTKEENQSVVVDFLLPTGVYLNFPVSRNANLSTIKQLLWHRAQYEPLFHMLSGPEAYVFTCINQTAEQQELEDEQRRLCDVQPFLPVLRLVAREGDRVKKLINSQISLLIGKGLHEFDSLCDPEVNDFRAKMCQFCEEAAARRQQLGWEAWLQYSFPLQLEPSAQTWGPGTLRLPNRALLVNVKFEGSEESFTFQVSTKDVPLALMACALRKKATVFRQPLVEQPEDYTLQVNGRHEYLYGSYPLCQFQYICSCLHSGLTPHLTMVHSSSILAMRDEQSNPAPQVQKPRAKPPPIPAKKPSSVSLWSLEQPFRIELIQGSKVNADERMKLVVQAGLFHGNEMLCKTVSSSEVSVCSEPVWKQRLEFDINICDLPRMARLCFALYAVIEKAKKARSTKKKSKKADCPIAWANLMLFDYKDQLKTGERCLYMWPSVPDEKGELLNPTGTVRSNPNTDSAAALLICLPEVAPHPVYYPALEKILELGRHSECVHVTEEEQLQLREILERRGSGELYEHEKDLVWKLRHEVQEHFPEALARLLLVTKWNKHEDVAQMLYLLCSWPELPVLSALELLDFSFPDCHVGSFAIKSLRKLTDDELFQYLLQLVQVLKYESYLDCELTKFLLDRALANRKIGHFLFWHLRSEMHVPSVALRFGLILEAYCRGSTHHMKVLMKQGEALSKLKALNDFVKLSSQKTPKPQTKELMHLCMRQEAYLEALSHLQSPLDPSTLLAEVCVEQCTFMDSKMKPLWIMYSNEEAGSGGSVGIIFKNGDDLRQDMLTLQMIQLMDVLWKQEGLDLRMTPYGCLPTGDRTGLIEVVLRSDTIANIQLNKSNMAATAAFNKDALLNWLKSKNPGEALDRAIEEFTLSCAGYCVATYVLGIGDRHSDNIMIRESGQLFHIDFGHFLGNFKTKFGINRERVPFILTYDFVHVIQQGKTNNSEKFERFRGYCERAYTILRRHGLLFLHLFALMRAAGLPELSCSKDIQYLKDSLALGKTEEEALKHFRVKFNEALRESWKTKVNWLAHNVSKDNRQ
Description: Inhibition of human PI3Kdelta (108 to 1044 residues) expressed in mammalian expression system by KINOMEscan assay

[4] = biological target: T2, Serine/threonine-protein kinase mTOR (Homo sapiens, UniProt P42345)
Description: Inhibition of human mTOR (1382 to 2549 residues) expressed in mammalian expression system by KINOMEscan assay

[5] = biological target: Phosphatidylinositol 4,5-bisphosphate 3-kinase catalytic subunit beta isoform (Homo sapiens, UniProt P42338)
Phosphatidylinositol 4,5-bisphosphate 3-kinase catalytic subunit beta isoform, sequence (P42338 whole entry, canonical isoform): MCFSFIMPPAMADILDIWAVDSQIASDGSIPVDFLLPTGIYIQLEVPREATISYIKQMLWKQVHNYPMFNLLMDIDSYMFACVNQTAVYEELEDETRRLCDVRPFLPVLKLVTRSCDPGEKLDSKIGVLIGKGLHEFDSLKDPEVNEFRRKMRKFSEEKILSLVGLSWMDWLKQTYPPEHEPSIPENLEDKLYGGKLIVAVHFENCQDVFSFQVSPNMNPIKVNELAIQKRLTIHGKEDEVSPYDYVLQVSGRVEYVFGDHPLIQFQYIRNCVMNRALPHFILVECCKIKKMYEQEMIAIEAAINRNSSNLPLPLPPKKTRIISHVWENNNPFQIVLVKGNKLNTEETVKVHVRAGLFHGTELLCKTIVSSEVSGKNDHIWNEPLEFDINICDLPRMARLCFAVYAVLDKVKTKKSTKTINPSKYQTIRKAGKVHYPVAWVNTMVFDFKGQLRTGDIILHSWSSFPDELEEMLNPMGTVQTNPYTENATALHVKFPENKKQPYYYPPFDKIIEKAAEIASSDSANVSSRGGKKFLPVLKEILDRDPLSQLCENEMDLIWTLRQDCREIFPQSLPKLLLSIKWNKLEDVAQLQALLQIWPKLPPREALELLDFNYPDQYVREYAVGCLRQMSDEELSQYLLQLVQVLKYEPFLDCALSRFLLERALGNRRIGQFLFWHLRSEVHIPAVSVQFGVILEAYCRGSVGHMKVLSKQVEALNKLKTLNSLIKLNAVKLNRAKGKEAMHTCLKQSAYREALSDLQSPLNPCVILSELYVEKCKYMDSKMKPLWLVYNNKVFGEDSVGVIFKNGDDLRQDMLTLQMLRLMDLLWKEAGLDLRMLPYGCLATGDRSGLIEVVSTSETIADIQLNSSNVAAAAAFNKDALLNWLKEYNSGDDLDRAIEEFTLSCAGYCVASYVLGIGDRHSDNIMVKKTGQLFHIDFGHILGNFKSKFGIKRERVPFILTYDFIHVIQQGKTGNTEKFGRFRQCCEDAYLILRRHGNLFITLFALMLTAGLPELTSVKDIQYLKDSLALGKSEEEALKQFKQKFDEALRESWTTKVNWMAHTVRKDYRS
Description: Inhibition of human PI3Kbeta (118 to 1070 residues) expressed in mammalian expression system by KINOMEscan assay

[6] = test system: Rattus norvegicus; assay: Increase in insulin levels in Sprague-Dawley rat plasma at 10 mg/kg, po administered as single dose; assay type: functional, organism-based
[7] = biological target: T3, Phosphatidylinositol 4,5-bisphosphate 3-kinase catalytic subunit alpha isoform (Homo sapiens, UniProt P42336)
T3 sequence (P42336 whole entry, the tested form may be a part, canonical isoform): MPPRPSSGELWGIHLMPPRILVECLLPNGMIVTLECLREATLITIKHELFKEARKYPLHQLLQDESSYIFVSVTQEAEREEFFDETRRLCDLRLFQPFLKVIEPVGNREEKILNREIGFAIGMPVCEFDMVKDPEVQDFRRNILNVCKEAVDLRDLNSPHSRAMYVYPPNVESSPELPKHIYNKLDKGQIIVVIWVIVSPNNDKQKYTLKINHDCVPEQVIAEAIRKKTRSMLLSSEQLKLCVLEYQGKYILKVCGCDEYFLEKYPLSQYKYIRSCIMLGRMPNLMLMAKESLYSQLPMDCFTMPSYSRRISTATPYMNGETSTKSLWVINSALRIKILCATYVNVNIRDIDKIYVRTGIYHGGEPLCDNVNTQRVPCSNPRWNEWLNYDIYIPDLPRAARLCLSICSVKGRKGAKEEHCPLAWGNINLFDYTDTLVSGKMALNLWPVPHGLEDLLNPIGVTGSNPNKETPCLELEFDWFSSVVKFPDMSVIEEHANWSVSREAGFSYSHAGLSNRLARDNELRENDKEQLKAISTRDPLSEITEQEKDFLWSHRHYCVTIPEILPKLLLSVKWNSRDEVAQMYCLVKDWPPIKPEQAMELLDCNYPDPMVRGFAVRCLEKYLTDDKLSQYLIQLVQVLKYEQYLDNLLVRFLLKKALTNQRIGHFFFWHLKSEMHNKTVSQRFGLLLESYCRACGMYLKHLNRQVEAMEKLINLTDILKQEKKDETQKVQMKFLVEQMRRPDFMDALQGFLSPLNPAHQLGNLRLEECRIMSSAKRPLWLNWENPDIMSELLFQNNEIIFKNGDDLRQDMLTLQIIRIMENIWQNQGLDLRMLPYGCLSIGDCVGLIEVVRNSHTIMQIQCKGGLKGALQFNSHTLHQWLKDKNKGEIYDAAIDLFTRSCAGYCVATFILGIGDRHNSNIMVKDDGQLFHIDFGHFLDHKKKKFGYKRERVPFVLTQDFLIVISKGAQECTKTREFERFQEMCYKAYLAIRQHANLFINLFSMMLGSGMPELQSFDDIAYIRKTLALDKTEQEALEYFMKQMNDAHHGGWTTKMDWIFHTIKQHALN
Description: Inhibition of human PI3Kalpha (108 to 1068 residues) expressed in mammalian expression system by KINOMEscan assay

[8] = biological target: Phosphatidylinositol 3-kinase catalytic subunit type 3 (Homo sapiens, UniProt Q8NEB9); assay: Inhibition of human VPS34 (282 to 879 residues) expressed in mammalian expression system by KINOMEscan assay
Phosphatidylinositol 3-kinase catalytic subunit type 3, sequence (Q8NEB9 whole entry, the tested form may be a part): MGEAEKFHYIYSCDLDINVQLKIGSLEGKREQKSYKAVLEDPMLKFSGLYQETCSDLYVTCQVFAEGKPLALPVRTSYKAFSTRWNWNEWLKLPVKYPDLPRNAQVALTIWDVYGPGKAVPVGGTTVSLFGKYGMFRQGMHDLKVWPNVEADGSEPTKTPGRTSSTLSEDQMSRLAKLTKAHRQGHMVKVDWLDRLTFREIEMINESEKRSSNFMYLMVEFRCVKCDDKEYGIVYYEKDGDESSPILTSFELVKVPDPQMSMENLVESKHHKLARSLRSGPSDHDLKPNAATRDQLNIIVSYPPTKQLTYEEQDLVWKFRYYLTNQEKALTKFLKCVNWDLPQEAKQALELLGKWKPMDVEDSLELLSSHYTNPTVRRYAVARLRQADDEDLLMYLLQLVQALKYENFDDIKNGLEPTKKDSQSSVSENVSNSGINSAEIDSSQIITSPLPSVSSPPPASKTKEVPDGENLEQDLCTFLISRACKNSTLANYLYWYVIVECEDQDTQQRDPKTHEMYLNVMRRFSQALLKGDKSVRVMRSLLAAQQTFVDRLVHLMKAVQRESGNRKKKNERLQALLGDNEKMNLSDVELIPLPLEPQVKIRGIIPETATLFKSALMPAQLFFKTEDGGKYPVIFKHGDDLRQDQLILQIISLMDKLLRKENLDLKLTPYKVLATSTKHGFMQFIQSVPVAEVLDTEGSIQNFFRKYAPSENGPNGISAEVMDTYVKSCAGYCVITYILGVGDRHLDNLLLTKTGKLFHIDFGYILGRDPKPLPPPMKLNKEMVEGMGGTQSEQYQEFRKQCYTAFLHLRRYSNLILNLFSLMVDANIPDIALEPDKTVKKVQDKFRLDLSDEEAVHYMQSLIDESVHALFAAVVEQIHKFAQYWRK

[9] = Ratio of drug level in Sprague-Dawley rat brain to plasma at 10 mg/kg, po administered as single dose; assay type: ADME, organism-based; conditions: read-out: BPR
[10] = test system: Mus musculus; assay: Increase in insulin levels in C57BL/6JRj mouse plasma at 50 mg/kg, po administered as single dose; assay type: functional, organism-based
[11] = biological target: Phosphatidylinositol 4-kinase beta (Homo sapiens, UniProt Q9UBF8)
Phosphatidylinositol 4-kinase beta, sequence (Q9UBF8 whole entry): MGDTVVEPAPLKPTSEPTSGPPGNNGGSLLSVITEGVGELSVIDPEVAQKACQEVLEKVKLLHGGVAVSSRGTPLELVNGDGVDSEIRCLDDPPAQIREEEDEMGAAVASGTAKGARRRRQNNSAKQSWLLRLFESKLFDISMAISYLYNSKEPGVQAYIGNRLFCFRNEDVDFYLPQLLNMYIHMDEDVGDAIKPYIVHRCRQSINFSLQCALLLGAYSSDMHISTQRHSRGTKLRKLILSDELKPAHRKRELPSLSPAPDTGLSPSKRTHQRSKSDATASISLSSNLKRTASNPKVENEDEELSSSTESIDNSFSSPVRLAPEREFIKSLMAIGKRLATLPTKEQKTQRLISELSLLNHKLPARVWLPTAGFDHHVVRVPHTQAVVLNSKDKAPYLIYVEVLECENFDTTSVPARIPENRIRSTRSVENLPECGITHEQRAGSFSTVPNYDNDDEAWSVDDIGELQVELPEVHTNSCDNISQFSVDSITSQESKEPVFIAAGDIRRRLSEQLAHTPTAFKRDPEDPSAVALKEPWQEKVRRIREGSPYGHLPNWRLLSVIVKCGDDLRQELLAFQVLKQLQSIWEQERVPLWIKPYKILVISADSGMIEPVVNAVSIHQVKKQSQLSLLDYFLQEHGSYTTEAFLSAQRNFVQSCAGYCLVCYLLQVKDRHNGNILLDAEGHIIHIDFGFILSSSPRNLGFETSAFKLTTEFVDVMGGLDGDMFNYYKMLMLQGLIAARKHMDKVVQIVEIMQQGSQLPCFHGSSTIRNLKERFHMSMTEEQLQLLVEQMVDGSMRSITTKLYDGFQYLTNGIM
Description: Inhibition of human PI4Kbeta (1 to 828 residues) expressed in mammalian expression system by KINOMEscan assay

[12] = Thermodynamic solubility of the compound in FeSSIF; assay type: physicochemical; conditions: read-out: Therm_solubility
[13] = test system: Mus musculus; assay: Increase in glucose levels in C57BL/6JRj mouse plasma at 50 mg/kg, po administered as single dose; assay type: functional, organism-based
[14] = biological target: PDE4D2 (3',5'-cyclic-AMP phosphodiesterase 4D) (Homo sapiens, UniProt Q08499); assay: Inhibition of recombinant human PDE4D2 at 10 uM using [3H]cAMP/cAMP by scintillation counting method relative to control; conditions: recombinant human PDE4D2, probe [3H]cAMP/cAMP
[15] = test system: A 172; assay: Growth inhibition of human A172 cells after 72 hrs by ATPlite based assay; assay type: functional; conditions: A 172, 72 h, pooled result: one value given for 8 cell lines, strains, targets or settings
[16] = Unbound fraction in rat brain; assay type: ADME, tissue-based
[17] = biological target: Voltage-gated inwardly rectifying potassium channel KCNH2 (Homo sapiens, UniProt Q12809); assay: Binding affinity to human ERG expressed in CHO cell membranes at 10 uM by radioligand displacement assay
[18] = Clearance in mouse hepatocytes assessed per million cells; assay type: ADME, cell-based, Hepatocyte; conditions: read-out: CLH
[19] = Lipophilicity, log D of the compound at pH 7.4; assay type: physicochemical; conditions: buffer
[20] = Thermodynamic solubility of the compound at pH 4.5; assay type: physicochemical; conditions: buffer, read-out: Therm_solubility
[21] = Metabolic stability in mouse liver microsomes assessed as compound remaining after 30 mins; assay type: ADME, microsome; conditions: read-out: Stability
[22] = Ratio of drug level in C57BL/6JRj mouse brain to plasma at 50 mg/kg, po administered as single dose; assay type: ADME, organism-based; conditions: read-out: BPR
[23] = Clearance in rat hepatocytes assessed per million cells; assay type: ADME, cell-based, Hepatocyte; conditions: read-out: CLH
[24] = Inhibition of TORC1 in human A2058 cells assessed as decrease in S6 phosphorylation at Ser235/236 after 1 hr by Western blot analysis; assay type: cell-based; conditions: A2058, 1 h
[25] = AUC in Sprague-Dawley rat plasma at 10 mg/kg, po administered as single dose after 8 hrs; assay type: ADME, organism-based; parameters: dose 10 mg/kg, time < 8 hr, route oral
[26] = Cmax in Sprague-Dawley rat brain at 10 mg/kg, po administered as single dose after 30 mins; assay type: ADME, organism-based; parameters: dose 10 mg/kg, route oral
[27] = Half life in mouse hepatocytes; assay type: ADME, cell-based, Hepatocyte
[28] = test system: Mus musculus; assay: Antiepileptic activity in Tsc1flox/flox/GFAP-Cre conditional knocked out mouse model assessed as reduction in seizures at 100 mg/kg, po qd treated from days 21 to 53 postnatal by electroencephalography; assay type: functional, organism-based
[29] = Half life in rat hepatocytes; assay type: ADME, cell-based, Hepatocyte
[30] = Thermodynamic solubility of the compound at pH 1.2; assay type: physicochemical; conditions: buffer, read-out: Therm_solubility
[31] = biological target: T3, Phosphatidylinositol 4,5-bisphosphate 3-kinase catalytic subunit alpha isoform; remark: listed apart in the source
[32] = Toxicity in rat after 14 days; assay type: organism-based; conditions: in vivo
[33] = biological target: T2, Serine/threonine-protein kinase mTOR; remark: listed apart in the source
[34] = Thermodynamic solubility of the compound at pH 6.8; assay type: physicochemical; conditions: buffer, read-out: Therm_solubility
[35] = Drug uptake in Sprague-Dawley rat brain at 10 mg/kg, po administered as single dose measured at >8 hrs; assay type: ADME, organism-based; conditions: read-out: Drug uptake
[36] = Cmax in Sprague-Dawley rat plasma at 10 mg/kg, po administered as single dose after 30 mins; assay type: ADME, organism-based; parameters: dose 10 mg/kg, route oral
[37] = Cmax in C57BL/6JRj mouse brain at 50 mg/kg, po administered as single dose; assay type: ADME, organism-based; parameters: dose 50 mg/kg, route oral
[38] = test system: Mus musculus; assay: Toxicity in BALB/C nude mouse xenografted with human OVCAR3 cells assessed as body weight loss at 50 mg/kg, po administered daily for 28 days relative to control; assay type: organism-based; conditions: in vivo, 672 h
[39] = Metabolic stability in rat liver microsomes assessed as compound remaining after 30 mins; assay type: ADME, microsome; conditions: read-out: Stability
[40] = test system: Rattus norvegicus; assay: Increase in glucose levels in Sprague-Dawley rat plasma at 10 mg/kg, po administered as single dose; assay type: functional, organism-based
[41] = Toxicity in mouse; assay type: organism-based; conditions: in vivo
[42] = Inhibition of TORC2 in human A2058 cells assessed as decrease in PKB/Akt phosphorylation at Ser473 after 1 hr by Western blot analysis; assay type: cell-based; conditions: A2058, 1 h
[43] = Apparent permeability of the compound by PAMPA; assay type: ADME
[44] = test system: OVCAR-3; assay: Antitumor activity against human OVCAR3 cells xenografted in BALB/C nude mouse assessed as tumor growth inhibition at 50 mg/kg, po administered daily for 28 days relative to control; assay type: functional; conditions: OVCAR-3, po, 672 h, read-out: TGI
[45] = AUC in Sprague-Dawley rat brain at 10 mg/kg, po administered as single dose after 8 hrs; assay type: ADME, organism-based; parameters: dose 10 mg/kg, time < 8 hr, route oral; conditions: in vivo
[46] = Thermodynamic solubility of the compound in FaSSIF; assay type: physicochemical; conditions: read-out: Therm_solubility
[47] = biological target: COX1 (Prostaglandin G/H synthase 1) (Homo sapiens, UniProt P23219); assay: Inhibition of recombinant human COX1 at 10 uM using arachidonic acid/ADHP as substrate by fluorometric method relative to control; conditions: recombinant human COX1, probe arachidonic acid/ADHP
[48] = biological target: T2, Serine/threonine-protein kinase mTOR; assay: Binding affinity to mTOR FKBP12 site (unknown origin)
[49] = test system: A2058; assay: Induction of cell cycle arrest in human A2058 cells assessed as accumulation at G1 phase at 5 uM after 24 hrs by Hoechst33342-staining based FACS analysis; assay type: functional
[50] = test system: SK-OV-3; assay: Induction of cell cycle arrest in human SKOV3 cells assessed as decrease in cell levels at S phase at 2 uM after 24 hrs by Hoechst33342-staining based FACS analysis; assay type: functional
[51] = test system: SK-OV-3; assay: Induction of cell cycle arrest in human SKOV3 cells assessed as decrease in cell levels at G2/M phase at 2 uM after 24 hrs by Hoechst33342-staining based FACS analysis; assay type: functional
[52] = test system: A2058; assay: Induction of cell cycle arrest in human A2058 cells assessed as decrease in cell levels at G2/M phase at 5 uM after 24 hrs by Hoechst33342-staining based FACS analysis; assay type: functional
[53] = test system: A2058; assay: Antiproliferative activity against human A2058 cells at 10 uM after 72 hrs by ATPlite based assay; assay type: functional, cell-based
[54] = test system: A2058; assay: Induction of cell cycle arrest in human A2058 cells assessed as decrease in cell levels at S phase at 5 uM after 24 hrs by Hoechst33342-staining based FACS analysis; assay type: functional
[55] = test system: SK-OV-3; assay: Induction of cell cycle arrest in human SKOV3 cells assessed as accumulation at G1 phase at 2 uM after 24 hrs by Hoechst33342-staining based FACS analysis; assay type: functional
[56] = test system: SK-OV-3; assay: Antiproliferative activity against human SKOV3 cells at 10 uM after 72 hrs by ATPlite based assay; assay type: functional, cell-based

Phosphatidylinositol 4,5-bisphosphate 3-kinase catalytic subunit gamma isoform, sequence (P48736 whole entry, canonical isoform): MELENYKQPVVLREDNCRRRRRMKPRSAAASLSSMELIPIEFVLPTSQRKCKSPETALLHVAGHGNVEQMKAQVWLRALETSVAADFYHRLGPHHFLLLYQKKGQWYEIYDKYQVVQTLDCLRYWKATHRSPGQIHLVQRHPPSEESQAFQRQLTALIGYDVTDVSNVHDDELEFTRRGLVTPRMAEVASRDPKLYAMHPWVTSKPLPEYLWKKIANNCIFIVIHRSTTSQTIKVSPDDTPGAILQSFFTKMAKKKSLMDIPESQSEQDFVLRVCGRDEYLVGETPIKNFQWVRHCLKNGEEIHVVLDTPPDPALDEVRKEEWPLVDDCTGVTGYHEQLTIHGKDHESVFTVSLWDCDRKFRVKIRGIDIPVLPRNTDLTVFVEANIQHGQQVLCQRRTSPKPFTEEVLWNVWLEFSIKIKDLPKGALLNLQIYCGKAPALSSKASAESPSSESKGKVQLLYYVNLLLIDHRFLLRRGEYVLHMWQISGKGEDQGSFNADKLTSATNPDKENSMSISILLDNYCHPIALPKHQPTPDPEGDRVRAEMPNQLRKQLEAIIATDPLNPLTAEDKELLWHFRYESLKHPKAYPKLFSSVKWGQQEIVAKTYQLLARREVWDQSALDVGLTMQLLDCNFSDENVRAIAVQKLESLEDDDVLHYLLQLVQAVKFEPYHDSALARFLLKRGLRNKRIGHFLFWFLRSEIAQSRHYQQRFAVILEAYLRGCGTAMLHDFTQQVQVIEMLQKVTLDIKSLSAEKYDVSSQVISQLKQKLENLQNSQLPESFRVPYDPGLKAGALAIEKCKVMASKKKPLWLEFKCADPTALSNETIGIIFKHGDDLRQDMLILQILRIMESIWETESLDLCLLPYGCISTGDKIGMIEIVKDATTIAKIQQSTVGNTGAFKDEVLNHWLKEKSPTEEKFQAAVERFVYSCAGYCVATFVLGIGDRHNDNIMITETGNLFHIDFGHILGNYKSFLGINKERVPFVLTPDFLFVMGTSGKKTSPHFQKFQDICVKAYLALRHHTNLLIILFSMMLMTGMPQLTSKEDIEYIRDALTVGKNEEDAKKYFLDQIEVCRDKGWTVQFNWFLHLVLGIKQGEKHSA

CCC(CC)n1cnc2c(-c3cnc(N)cn3)nc(N3CC4CCC(C3)O4)nc21
concentration at 4 h [1]: 170 ng/g
Kd [2]: 22 µM
Kd [3]: > 30 µM
Kd [4]: 0.85 nM
Kd [5]: 20 µM
Activity [6]: inactive
Kd [7]: 2700 nM
Kd [8]: 8.3 µM
Kp [9]: 0.178
Activity [10]: inactive
Kd [11]: > 30 µM

Nc1cc(C(F)F)c(-c2nc(N3C4CCC3COC4)nc(N3C4CCC3COC4)n2)cn1
solubility thermodynamic [12]: 335 µM (≈ 149 µg/mL)
Kd [2]: 18 µM
Activity [13]: Active
inhibition at 10 µM [14]: < 50%
IC50 [15]: 920 nM
Kd [3]: 23 µM
Kd [4]: 0.27 nM
fraction unbound [16]: 0.03
Kd [5]: 22 µM
inhibition (INH) [17]: Not Active
hepatocyte CLint [18]: 2.67 µL/min/1e6 cells
logD [19]: 3.47
solubility thermodynamic [20]: 78.2 µM (≈ 34.8 µg/mL)
remaining at 0.5 h [21]: 70.2%
Kp [22]: 1.6
hepatocyte CLint [23]: 1.85 µL/min/1e6 cells
IC50 [24]: 85.2 nM
AUC at 8 h [25]: 409 µg·h/mL
Cmax [26]: 1310 ng/g
half-life [27]: 324 min
Activity [28]: Active
half-life [29]: 468 min
solubility thermodynamic [30]: 20 mM (≈ 8890 µg/mL)
Activity [6]: inactive
Ki [31]: 4.2 µM
MTD at 336 h [32]: 30 mg/kg
Ki [33]: 10.8 nM
solubility thermodynamic [34]: 33.7 µM (≈ 15 µg/mL)
concentration at 8 h [35]: 900 ng/g
Cmax [36]: 1360 ng/mL
Kd [7]: 1000 nM
Cmax [37]: 7710 ng/g
Activity [38]: Non-Toxic
remaining at 0.5 h [39]: 108%
Activity [40]: inactive
MTD [41]: 150 mg/kg
IC50 [42]: 190 nM
Papp [43]: 5.22 ×10⁻⁶ cm/s
Kd [8]: 2.75 µM
inhibition in vivo at 50 mg/kg [44]: > 50%
Kp [9]: 1
Activity [10]: inactive
AUC [45]: 404 µg·h/g
Kd [11]: > 30 µM
solubility thermodynamic [46]: 66 µM (≈ 29.4 µg/mL)
inhibition at 10 µM [47]: < 50%

CO[C@H]1C[C@@H]2CC[C@@H](C)[C@@](O)(O2)C(=O)C(=O)N2CCCC[C@H]2C(=O)O[C@H]([C@H](C)C[C@@H]2CC[C@@H](OCCO)[C@H](OC)C2)CC(=O)[C@H](C)/C=C(\C)[C@@H](O)[C@@H](OC)C(=O)[C@H](C)C[C@H](C)/C=C/C=C/C=C/1C [EVEROLIMUS]
Kd [48]: 2 nM

CO[C@H]1C[C@@H]2CC[C@@H](C)[C@@](O)(O2)C(=O)C(=O)N2CCCC[C@H]2C(=O)O[C@H]([C@H](C)C[C@@H]2CC[C@@H](O)[C@H](OC)C2)CC(=O)[C@H](C)/C=C(\C)[C@@H](O)[C@@H](OC)C(=O)[C@H](C)C[C@H](C)/C=C/C=C/C=C/1C
Activity [49]: Active
Activity [50]: Active
Activity [51]: Active
Activity [52]: Active
Activity [53]: Active
Activity [54]: Active
Activity [55]: Active
Activity [56]: inactive

Reference: ChEMBL document CHEMBL4270669 (J Med Chem, 2018)
